# Read-outs that look alike come from different tables or passages of the source. Positions of bridges follow the written chain, without caps; N, C: chain ends. Non-standard residues stand in square brackets, D forms with d. Residues, ends and D or L forms follow the SMILES beside them. Orn(iPr) = CC(C)NCCC[C@H](N)C(=O)O; Aad = N[C@@H](CCCC(=O)O)C(=O)O
# Key:
# [1] = Pharmacokinetics in septic shock patients, two-compartment population pharmacokinetic model; format: in vivo, human; conditions: for Initial elimination half-life / Time to steady state / clearance / Vd / half-life: mean (SD), SD; for clearance / Vd / half-life: human, in vivo, intravenous; for clearance: read-out: Clearance (total systemic) (converted); for Vd: read-out: Steady state volume; for half-life: read-out: Terminal elimination half-life (converted)
# Description: Because the study drug infusion was administered according to need, the pharmacokinetic parameters steady-state concentration, total systemic clearance, distribution volume at steady state, and half-life were calculated by modeling using a two-compartment population pharmacokinetic model with random subject effects on clearance and distribution volume using WinNonlin®Pro (Pharsight Corp., Cary, NC, USA). Actual blood sampling time points were used for the calculations.
# Data are generated by modelling the concentration data available from all subjects. Mean (SD)
# healthy subjects = test system: healthy subjects; set-up: method as in Ferring Pharmaceuticals A/S, unpublished data; conditions: 30 healthy subjects, infusion rates up to 3.0 ng/kg/minute for 6 h; ref Ferring Pharmaceuticals A/S, unpublished data; cited from earlier work
# [2] = test system: patients in early septic shock; experiment: Safety: treatment-emergent adverse events in the phase IIa trial; format: in vivo, human
# Description: Secondary endpoints included pharmacodynamics, pharmacokinetics, safety (vital signs, central venous pressure, central venous oxygen saturation, electrocardiographic and cardiac function, respiratory function, clinical chemistry, hematology, hemostasis, and urinalysis), organ dysfunction, an indirect measure of vascular leakage (i.e., fluid balance), and morbidity. Treatment-emergent adverse events (occurrence from start of study drug to 48 h after infusion was stopped) were collated and evaluated. Morbidity and organ dysfunction were evaluated by time course of Sequential Organ Failure Assessment (SOFA) scores; days alive and free of organ dysfunction (using SOFA); proportion of patients off all vasopressors; days alive and out of intensive care unit (ICU); days alive and free of vasopressors; corticosteroids for sepsis treatment, dialysis, or mechanical ventilation at days 7, 14, and 28; ICU and hospital (up to day 28) lengths of stay; and plasma C-reactive protein (CRP), tumor necrosis factor (TNF)-α, interleukin (IL)-6, IL-10, and IL-1ra levels.
# [3] = set-up: method as in Ferring Pharmaceuticals, unpublished data; conditions: healthy subjects; ref Ferring Pharmaceuticals, unpublished data; cited from earlier work
# patients = conditions: 30 patients, infusion rates of 3.75 ng/kg/minute and higher; ref Ferring Pharmaceuticals A/S, unpublished data; cited from earlier work
# [4] = cited from earlier work
# [5] = Selepressin 2.5 ng/kg/minute (n = 19), possibly or probably related
# [6] = Selepressin 3.75 ng/kg/minute (n = 2), possibly or probably related
compound,measurement,setting,value
CC[C@H](C)[C@@H]1NC(=O)[C@H](Cc2ccccc2)NC(=O)[C@@H](N)CSSC[C@@H](C(=O)N2CCC[C@H]2C(=O)N[C@@H](CCCNC(C)C)C(=O)NCC(N)=O)NC(=O)[C@H](CC(N)=O)NC(=O)[C@H](CCCC(N)=O)NC1=O [selepressin] (H-CFI[Aad](NH2)NCP[Orn(iPr)]G-NH2; disulfide 1-6),Initial distribution/elimination phase half-life,[1],approximately 10 minutes
same,Initial elimination half-life,"[1]; 1.25 ng/kg.min, N=10, modelled",0.18 (0.09) h
same,Time to steady state,"[1]; 1.25 ng/kg.min, N=10, modelled",7.6 (2.8) h
same,Initial elimination half-life,"[1]; 2.5 ng/kg.min, N=17, modelled",0.17 (0.06) h
same,Time to steady state,"[1]; 2.5 ng/kg.min, N=17, modelled",7.0 (2.3) h
same,Terminal half-life,[1]; both dose groups,2.5 h
same,Time to steady-state concentration,[1]; both infusion rates (1.25 and 2.5),approximately 7 h
same,clearance,"[1]; 1.25 ng/kg.min, N=10, modelled",167 mL/min
same,Vd,"[1]; 1.25 ng/kg.min, N=10, modelled",25.5 L
same,half-life,"[1]; 1.25 ng/kg.min, N=10, modelled",2.5 h
same,clearance,"[1]; 2.5 ng/kg.min, N=17, modelled",218 mL/min
same,Vd,"[1]; 2.5 ng/kg.min, N=17, modelled",31.2 L
same,half-life,"[1]; 2.5 ng/kg.min, N=17, modelled",2.7 h
same,Safety and tolerability,healthy subjects,safe and well tolerated
same,Any severe TEAE: E (events),[2]; 1.25 ng/kg.min N=10,8
same,Any severe TEAE: N (%),[2]; 1.25 ng/kg.min N=10,3 (30)
same,Severe TEAE Acute respiratory distress syndrome: E (events),[2]; 1.25 ng/kg.min N=10,1
same,Severe TEAE Acute respiratory distress syndrome: N (%),[2]; 1.25 ng/kg.min N=10,1 (10)
same,Severe TEAE Ascites: E (events),[2]; 1.25 ng/kg.min N=10,1
same,Severe TEAE Ascites: N (%),[2]; 1.25 ng/kg.min N=10,1 (10)
same,Severe TEAE Cerebral hemorrhage: E (events),[2]; 1.25 ng/kg.min N=10,1
same,Severe TEAE Cerebral hemorrhage: N (%),[2]; 1.25 ng/kg.min N=10,1 (10)
same,Severe TEAE Disseminated intravascular coagulation: E (events),[2]; 1.25 ng/kg.min N=10,1
same,Severe TEAE Disseminated intravascular coagulation: N (%),[2]; 1.25 ng/kg.min N=10,1 (10)
same,Severe TEAE Hepatic failure: E (events),[2]; 1.25 ng/kg.min N=10,1
same,Severe TEAE Hepatic failure: N (%),[2]; 1.25 ng/kg.min N=10,1 (10)
same,Severe TEAE Hyperkalemia: E (events),[2]; 1.25 ng/kg.min N=10,1
same,Severe TEAE Hyperkalemia: N (%),[2]; 1.25 ng/kg.min N=10,1 (10)
same,Severe TEAE Mechanical ventilation complication: E (events),[2]; 1.25 ng/kg.min N=10,1
same,Severe TEAE Mechanical ventilation complication: N (%),[2]; 1.25 ng/kg.min N=10,1 (10)
same,Severe TEAE Oliguria: E (events),[2]; 1.25 ng/kg.min N=10,1
same,Severe TEAE Oliguria: N (%),[2]; 1.25 ng/kg.min N=10,1 (10)
same,Any severe TEAE: E (events),[2]; 2.5 ng/kg.min N=19,6
same,Any severe TEAE: N (%),[2]; 2.5 ng/kg.min N=19,4 (21)
same,Severe TEAE Myocarditis: E (events),[2]; 2.5 ng/kg.min N=19,1
same,Severe TEAE Myocarditis: N (%),[2]; 2.5 ng/kg.min N=19,1 (5)
same,Severe TEAE Peripheral ischemia: E (events),[2]; 2.5 ng/kg.min N=19,1
same,Severe TEAE Peripheral ischemia: N (%),[2]; 2.5 ng/kg.min N=19,1 (5)
same,Severe TEAE Pneumothorax: E (events),[2]; 2.5 ng/kg.min N=19,1
same,Severe TEAE Pneumothorax: N (%),[2]; 2.5 ng/kg.min N=19,1 (5)
same,Severe TEAE Respiratory distress: E (events),[2]; 2.5 ng/kg.min N=19,2
same,Severe TEAE Respiratory distress: N (%),[2]; 2.5 ng/kg.min N=19,2 (11)
same,Severe TEAE Urinary bladder hemorrhage: E (events),[2]; 2.5 ng/kg.min N=19,1
same,Severe TEAE Urinary bladder hemorrhage: N (%),[2]; 2.5 ng/kg.min N=19,1 (5)
same,Adverse drug reactions judged as serious,"[2]; 2.5 ng/kg/minute group, one patient",myocarditis and peripheral ischemia
same,Any severe TEAE: E (events),[2]; 3.75 ng/kg.min N=2,2
same,Any severe TEAE: N (%),[2]; 3.75 ng/kg.min N=2,2 (100)
same,Severe TEAE Cardio-respiratory arrest: E (events),[2]; 3.75 ng/kg.min N=2,1
same,Severe TEAE Cardio-respiratory arrest: N (%),[2]; 3.75 ng/kg.min N=2,1 (50)
same,Severe TEAE Myocardial ischemia: E (events),[2]; 3.75 ng/kg.min N=2,1
same,Severe TEAE Myocardial ischemia: N (%),[2]; 3.75 ng/kg.min N=2,1 (50)
same,Adverse drug reactions judged as serious,[2]; 3.75 ng/kg/minute group,myocardial ischemia
same,"Cyanosis, treatment-related adverse drug reaction: No. of subjects (%)",[2]; [5],1 (5)
same,"Cyanosis, treatment-related adverse drug reaction: events",[2]; [5],1
same,"Hypertension, treatment-related adverse drug reaction: No. of subjects (%)",[2]; [5],2 (11)
same,"Hypertension, treatment-related adverse drug reaction: events",[2]; [5],2
same,"Myocarditis, treatment-related adverse drug reaction: No. of subjects (%)",[2]; [5],1 (5)
same,"Myocarditis, treatment-related adverse drug reaction: events",[2]; [5],1
same,"Peripheral ischemia, treatment-related adverse drug reaction: No. of subjects (%)",[2]; [5],1 (5)
same,"Peripheral ischemia, treatment-related adverse drug reaction: events",[2]; [5],1
same,"Myocardial ischemia, treatment-related adverse drug reaction: No. of subjects (%)",[2]; [6],1 (50)
same,"Myocardial ischemia, treatment-related adverse drug reaction: events",[2]; [6],1
same,Tolerability,"[2]; selepressin 2.5 ng/kg/minute, septic shock patients",well tolerated
same,Tolerability (treatment-emergent adverse events vs placebo),"[2]; selepressin dose groups, septic shock patients",well tolerated
same,Deaths related to ischemic event(s) attributable to selepressin,"[2]; septic shock patients, all dose groups",no deaths
same,Terminal half-life,[3],1.5 h
same,Safety,patients,did not raise any safety concerns
same,"Half-life (qualitative, compared with vasopressin and terlipressin)",[4],intermediate
terlipressin [reference compound],Half-life (qualitative),[4]; in vivo,long half-life
